Tests used:
EGFR = target: T1, EGFR (Homo sapiens, UniProt P00533); experiment: EGFR inhibitory assay (EGFR-TK, DELFIA/time-resolved fluorometry); format: biochemical; conditions: for IC50: read-out: EGFR inhibition IC50 ± SEM
T1 construct: EGFR cytoplasmic domain (EGFR-CD, amino acids 645–1186); His6 (N); made in house; host or cells: Sf-9 insect cells (baculovirus; pBlueBacHis2B and pFASTBacHTc)
Description: 5ʹ upstream to the EGFR sequence comprised a sequence that encoded (His)6. Sf-9 cells were infected for 72h for protein expression. The pellets of Sf-9 cells were solubilized in a buffer containing sodium vanadate (100 µM), aprotinin (10 µg/mL), triton (1%), HEPES buffer (50mM), ammonium molybdate (10 µM), benzamidine HCl (16 µg/mL), NaCl (10 mM), leupeptin (10 µg/mL) and pepstatin (10 µg/mL) at 0°C for 20 min at pH 7.4, followed by centrifugation for 20 min. To eliminate the non-specifically bound material, a Ni-NTA super flow packed column was used to pass through and wash the crude extract supernatant first with 10 mM and then with 100 mM imidazole. Histidine-linked proteins were first eluted with 250 and then with 500 mM imidazole after dialysis against NaCl (50 mM), HEPES (20 mM), glycerol (10%) and 1 µg/mL each of aprotinin, leupeptin and pepstatin for 120 min. The purification was performed either at 4 °C or on ice. To record autophosphorylation level, EGFR kinase assay was carried out based on DELFIA/Time-Resolved Fluorometry. The compounds were first dissolved in DMSO absolute, after dilution to appropriate concentration using HEPES (25 mM) at pH 7.4. Each compound (10 µL) was incubated with recombinant enzyme (10 µL, 5 ng for EGFR, 1:80 dilution in 100 mM HEPES) for 10 min at 25 °C, after the addition of 5X buffer (10 µL, containing 2 mM MnCl2, 100 µM Na3VO4, 20 mM HEPES and 1 mM DTT) and ATP-MgCl2 (20 µL, containing 0.1 mM ATP and 50 mM MgCl2) and incubation for 1h. The negative and positive controls were included in each plate by the incubation of enzyme either with or without ATP-MgCl2. The liquid was removed after incubation and the plates were washed thrice using wash buffer. Europium-tagged antiphosphotyrosine antibody (75 µL, 400 ng) was added to each well followed by incubation of 1h and then washing of the plates using buffer. The enhancement solution was added to each well and the signal was recorded at excitation and emission wavelengths of 340 at 615 nm. The autophosphorylation percentage inhibition by compounds was calculated using the following equation: […]

T1 sequence (P00533 669-1210): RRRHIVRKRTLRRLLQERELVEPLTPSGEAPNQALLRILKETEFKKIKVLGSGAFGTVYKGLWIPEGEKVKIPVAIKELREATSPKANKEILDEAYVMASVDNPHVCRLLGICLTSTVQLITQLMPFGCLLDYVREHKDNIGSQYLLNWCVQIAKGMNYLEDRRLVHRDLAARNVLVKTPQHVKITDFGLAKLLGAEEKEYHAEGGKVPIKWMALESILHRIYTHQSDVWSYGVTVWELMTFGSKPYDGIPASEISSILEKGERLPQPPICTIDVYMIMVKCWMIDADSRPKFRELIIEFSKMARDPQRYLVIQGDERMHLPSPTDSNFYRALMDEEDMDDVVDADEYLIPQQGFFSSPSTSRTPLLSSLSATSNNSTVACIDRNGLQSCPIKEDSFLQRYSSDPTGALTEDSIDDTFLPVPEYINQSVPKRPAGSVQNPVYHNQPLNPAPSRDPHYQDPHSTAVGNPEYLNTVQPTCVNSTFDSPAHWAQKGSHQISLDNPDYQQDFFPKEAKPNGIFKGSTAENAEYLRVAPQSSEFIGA

Row | Compound | melting point [°C] | IC50 (EGFR) [nM] | fold less potent than erlotinib (EGFR IC50) (EGFR; ratio of EGFR IC50 values) [fold]
1 | COc1cccc(NC(=S)Nc2c[nH]c(=O)[nH]c2=O)c1 [Compound 3c, 1-(2,4-Dioxo-1,2,3,4-tetrahydropyrimidin-5-yl)-3-(3-methoxyphenyl)thiourea] | 350 to 352 | 125 ± 11 | 1.6
2 | CCOC(=O)/C=C1\S/C(=N\c2c[nH]c(=O)[nH]c2=O)N(c2cccc(OC)c2)C1=O [Compound 5c, (Z)-Ethyl-2-((Z)-2-((2,4-dioxo-1,2,3,4-tetrahydropyrimidin-5-yl)imino)-3-(3-methoxyphenyl)-4-oxo-thiazolidin-5-ylidene)acetate] | 330 to 332 | 115 ± 10 | –
3 | CCOC(=O)/C=C1\S/C(=N\c2c[nH]c(=O)[nH]c2=O)N(c2ccc(C)cc2)C1=O [Compound 5b, (Z)-Ethyl-2-((Z)-2-((2,4-dioxo-1,2,3,4-tetrahydropyrimidin-5-yl)imino)-4-oxo-3-(p-tolyl)thiazolidin-5-ylidene)acetate] | – | 91 ± 7 | –

Results, then the compound that gave them:

Row | melting point [°C] | IC50 (EGFR) [nM] | fold less potent than erlotinib (EGFR IC50) (EGFR; ratio of EGFR IC50 values) [fold] | Compound
4 | 306 to 308 | 87 ± 5 | – | COC(=O)/C=C1\S/C(=N\c2c[nH]c(=O)[nH]c2=O)N(Cc2ccccc2)C1=O [Compound 5j, (Z)-Methyl-2-((Z)-3-benzyl-2-((2,4-dioxo-1,2,3,4-tetrahydropyrimidin-5-yl)imino)-4-oxothiazolidin-5-ylidene)acetate]
5 | 308 to 310 | 112 ± 10 | – | COC(=O)/C=C1\S/C(=N\c2c[nH]c(=O)[nH]c2=O)N(c2ccc(C)cc2)C1=O [Compound 5h, (Z)-Methyl-2-((Z)-2-((2,4-dioxo-1,2,3,4-tetrahydropyrimidin-5-yl)imino)-4-oxo-3-(p-tolyl)-thiazolidin-5-ylidene)acetate]
6 | 322 to 324 | 96 ± 7 | – | COC(=O)/C=C1\S/C(=N\c2c[nH]c(=O)[nH]c2=O)N(c2cccc(OC)c2)C1=O [Compound 5i, (Z)-Methyl-2-((Z)-2-((2,4-dioxo-1,2,3,4-tetrahydropyrimidin-5-yl)imino)-3-(3-methoxyphenyl)-4-oxothiazolidin-5-ylidene)acetate]

Reference: PMC9792171, “Design and synthesis of new thiazolidinone/uracil derivatives as antiproliferative agents targeting EGFR and/or BRAF^V600E” (Frontiers in Chemistry, 2022)
